Measured values taken from the NIST ThermoML archive (doi:10.1021/je900715y).
± gives the expanded uncertainty stated by the source.

Experiment: xn = mol fraction of the nth substance listed
Settings: 101.3 kPa, Liquid

What does the source list for CCC(C)O (stereo not given) [butan-2-ol] + CCCCCCC?
mass density (288.15 K, x1 = 0.05): 691.106 ± 0.63 kg/m3; mass density (288.15 K, x1 = 0.1): 694.641 ± 0.63 kg/m3; mass density (288.15 K, x1 = 0.15): 698.486 ± 0.63 kg/m3; mass density (288.15 K, x1 = 0.2003): 702.573 ± 0.63 kg/m3; mass density (288.15 K, x1 = 0.3016): 711.547 ± 0.62 kg/m3; mass density (288.15 K, x1 = 0.4004): 721.346 ± 0.61 kg/m3; mass density (288.15 K, x1 = 0.5002): 732.429 ± 0.6 kg/m3; mass density (288.15 K, x1 = 0.5999): 744.751 ± 0.59 kg/m3; mass density (288.15 K, x1 = 0.65): 751.547 ± 0.59 kg/m3; mass density (288.15 K, x1 = 0.72): 761.59 ± 0.58 kg/m3; mass density (288.15 K, x1 = 0.8): 774.103 ± 0.57 kg/m3; mass density (288.15 K, x1 = 0.8499): 782.463 ± 0.57 kg/m3; mass density (288.15 K, x1 = 0.8995): 791.187 ± 0.56 kg/m3; mass density (288.15 K, x1 = 0.9501): 800.691 ± 0.56 kg/m3; mass density (288.15 K, x1 = 1): 810.689 ± 0.55 kg/m3; mass density (293.15 K, x1 = 0.05): 686.813 ± 0.64 kg/m3; mass density (293.15 K, x1 = 0.1): 690.325 ± 0.64 kg/m3; mass density (293.15 K, x1 = 0.15): 694.158 ± 0.64 kg/m3; mass density (293.15 K, x1 = 0.2003): 698.236 ± 0.63 kg/m3; mass density (293.15 K, x1 = 0.3016): 707.194 ± 0.62 kg/m3; mass density (293.15 K, x1 = 0.4004): 716.97 ± 0.62 kg/m3; mass density (293.15 K, x1 = 0.5002): 728.035 ± 0.61 kg/m3; mass density (293.15 K, x1 = 0.5999): 740.362 ± 0.6 kg/m3; mass density (293.15 K, x1 = 0.65): 747.174 ± 0.6 kg/m3; mass density (293.15 K, x1 = 0.72): 757.255 ± 0.59 kg/m3; mass density (293.15 K, x1 = 0.8): 769.827 ± 0.58 kg/m3; mass density (293.15 K, x1 = 0.8499): 778.238 ± 0.57 kg/m3; mass density (293.15 K, x1 = 0.8995): 787.015 ± 0.57 kg/m3; mass density (293.15 K, x1 = 0.9501): 796.583 ± 0.56 kg/m3; mass density (293.15 K, x1 = 1): 806.646 ± 0.56 kg/m3; mass density (298.15 K, x1 = 0.05): 682.487 ± 0.65 kg/m3; mass density (298.15 K, x1 = 0.1): 685.97 ± 0.65 kg/m3; mass density (298.15 K, x1 = 0.15): 689.789 ± 0.64 kg/m3; mass density (298.15 K, x1 = 0.2003): 693.854 ± 0.64 kg/m3; mass density (298.15 K, x1 = 0.3016): 702.791 ± 0.63 kg/m3; mass density (298.15 K, x1 = 0.4004): 712.546 ± 0.62 kg/m3; mass density (298.15 K, x1 = 0.5002): 723.591 ± 0.62 kg/m3; mass density (298.15 K, x1 = 0.5999): 735.917 ± 0.61 kg/m3; mass density (298.15 K, x1 = 0.65): 742.739 ± 0.6 kg/m3; mass density (298.15 K, x1 = 0.72): 752.851 ± 0.59 kg/m3; mass density (298.15 K, x1 = 0.8): 765.479 ± 0.59 kg/m3; mass density (298.15 K, x1 = 0.8499): 773.935 ± 0.58 kg/m3; mass density (298.15 K, x1 = 0.8995): 782.767 ± 0.57 kg/m3; mass density (298.15 K, x1 = 0.9501): 792.396 ± 0.57 kg/m3; mass density (298.15 K, x1 = 1): 802.528 ± 0.56 kg/m3; mass density (303.15 K, x1 = 0.05): 678.127 ± 0.65 kg/m3; mass density (303.15 K, x1 = 0.1): 681.576 ± 0.65 kg/m3; mass density (303.15 K, x1 = 0.15): 685.376 ± 0.65 kg/m3; mass density (303.15 K, x1 = 0.2003): 689.427 ± 0.65 kg/m3; mass density (303.15 K, x1 = 0.3016): 698.341 ± 0.64 kg/m3; mass density (303.15 K, x1 = 0.4004): 708.073 ± 0.63 kg/m3; mass density (303.15 K, x1 = 0.5002): 719.095 ± 0.62 kg/m3; mass density (303.15 K, x1 = 0.5999): 731.411 ± 0.61 kg/m3; mass density (303.15 K, x1 = 0.65): 738.239 ± 0.61 kg/m3; mass density (303.15 K, x1 = 0.72): 748.373 ± 0.6 kg/m3; mass density (303.15 K, x1 = 0.8): 761.053 ± 0.59 kg/m3; mass density (303.15 K, x1 = 0.8499): 769.552 ± 0.59 kg/m3; mass density (303.15 K, x1 = 0.8995): 778.434 ± 0.58 kg/m3; mass density (303.15 K, x1 = 0.9501): 788.125 ± 0.57 kg/m3; mass density (303.15 K, x1 = 1): 798.326 ± 0.57 kg/m3; mass density (308.15 K, x1 = 0.05): 673.731 ± 0.66 kg/m3; mass density (308.15 K, x1 = 0.1): 677.138 ± 0.66 kg/m3; mass density (308.15 K, x1 = 0.15): 680.913 ± 0.66 kg/m3; mass density (308.15 K, x1 = 0.2003): 684.946 ± 0.65 kg/m3; mass density (308.15 K, x1 = 0.3016): 693.835 ± 0.65 kg/m3; mass density (308.15 K, x1 = 0.4004): 703.542 ± 0.64 kg/m3; mass density (308.15 K, x1 = 0.5002): 714.54 ± 0.63 kg/m3; mass density (308.15 K, x1 = 0.5999): 726.839 ± 0.62 kg/m3; mass density (308.15 K, x1 = 0.65): 733.67 ± 0.61 kg/m3; mass density (308.15 K, x1 = 0.72): 743.821 ± 0.61 kg/m3; mass density (308.15 K, x1 = 0.8): 756.541 ± 0.6 kg/m3; mass density (308.15 K, x1 = 0.8499): 765.08 ± 0.59 kg/m3; mass density (308.15 K, x1 = 0.8995): 774.01 ± 0.59 kg/m3; mass density (308.15 K, x1 = 0.9501): 783.761 ± 0.58 kg/m3; mass density (308.15 K, x1 = 1): 794.03 ± 0.57 kg/m3; mass density (313.15 K, x1 = 0.05): 669.301 ± 0.67 kg/m3; mass density (313.15 K, x1 = 0.1): 672.659 ± 0.66 kg/m3; mass density (313.15 K, x1 = 0.15): 676.402 ± 0.66 kg/m3; mass density (313.15 K, x1 = 0.2003): 680.415 ± 0.66 kg/m3; mass density (313.15 K, x1 = 0.3016): 689.275 ± 0.65 kg/m3; mass density (313.15 K, x1 = 0.4004): 698.952 ± 0.64 kg/m3; mass density (313.15 K, x1 = 0.5002): 709.925 ± 0.64 kg/m3; mass density (313.15 K, x1 = 0.5999): 722.202 ± 0.63 kg/m3; mass density (313.15 K, x1 = 0.65): 729.03 ± 0.62 kg/m3; mass density (313.15 K, x1 = 0.72): 739.19 ± 0.61 kg/m3; mass density (313.15 K, x1 = 0.8): 751.943 ± 0.6 kg/m3; mass density (313.15 K, x1 = 0.8499): 760.519 ± 0.6 kg/m3; mass density (313.15 K, x1 = 0.8995): 769.495 ± 0.59 kg/m3; mass density (313.15 K, x1 = 0.9501): 779.299 ± 0.59 kg/m3; mass density (313.15 K, x1 = 1): 789.632 ± 0.58 kg/m3; mass density (318.15 K, x1 = 0.05): 664.835 ± 0.67 kg/m3; mass density (318.15 K, x1 = 0.1): 668.131 ± 0.67 kg/m3; mass density (318.15 K, x1 = 0.15): 671.84 ± 0.67 kg/m3; mass density (318.15 K, x1 = 0.2003): 675.83 ± 0.67 kg/m3; mass density (318.15 K, x1 = 0.3016): 684.65 ± 0.66 kg/m3; mass density (318.15 K, x1 = 0.4004): 694.299 ± 0.65 kg/m3; mass density (318.15 K, x1 = 0.5002): 705.243 ± 0.64 kg/m3; mass density (318.15 K, x1 = 0.5999): 717.496 ± 0.63 kg/m3; mass density (318.15 K, x1 = 0.65): 724.317 ± 0.63 kg/m3; mass density (318.15 K, x1 = 0.72): 734.479 ± 0.62 kg/m3; mass density (318.15 K, x1 = 0.8): 747.257 ± 0.61 kg/m3; mass density (318.15 K, x1 = 0.8499): 755.863 ± 0.6 kg/m3; mass density (318.15 K, x1 = 0.8995): 764.879 ± 0.6 kg/m3; mass density (318.15 K, x1 = 0.9501): 774.738 ± 0.59 kg/m3; mass density (318.15 K, x1 = 1): 785.117 ± 0.58 kg/m3; mass density (323.15 K, x1 = 0.05): 660.336 ± 0.68 kg/m3; mass density (323.15 K, x1 = 0.1): 663.562 ± 0.68 kg/m3; mass density (323.15 K, x1 = 0.15): 667.23 ± 0.68 kg/m3; mass density (323.15 K, x1 = 0.2003): 671.188 ± 0.67 kg/m3; mass density (323.15 K, x1 = 0.3016): 679.969 ± 0.67 kg/m3; mass density (323.15 K, x1 = 0.4004): 689.584 ± 0.66 kg/m3; mass density (323.15 K, x1 = 0.5002): 700.502 ± 0.65 kg/m3; mass density (323.15 K, x1 = 0.5999): 712.72 ± 0.64 kg/m3; mass density (323.15 K, x1 = 0.65): 719.533 ± 0.63 kg/m3; mass density (323.15 K, x1 = 0.72): 729.69 ± 0.63 kg/m3; mass density (323.15 K, x1 = 0.8): 742.488 ± 0.62 kg/m3; mass density (323.15 K, x1 = 0.8499): 751.116 ± 0.61 kg/m3; mass density (323.15 K, x1 = 0.8995): 760.166 ± 0.6 kg/m3; mass density (323.15 K, x1 = 0.9501): 770.073 ± 0.6 kg/m3; mass density (323.15 K, x1 = 1): 780.515 ± 0.59 kg/m3
